Data published in US20250326744A1, “PIPERAZINE DERIVATIVE OR SALT THEREOF, AND PHARMACEUTICAL COMPOSITION” (priority 2022, published 2025).
Structures can show the parent of a compound that is named as a salt.

Experiments:
mexB (PA) strain = assay: Combinational effect with antibacterial agent against Pseudomonas aeruginosa (Test Examples 2 and 4): mexB (PA) strain with LVFX, TC or AZT at 1/4 MIC, EC99; format: cell-based; conditions: mexB (PA) strain, Test Example 4; for EC99, combinational effect with AZT, mexB (PA): combined with AZT at 1/4 MIC; for EC99, combinational effect with LVFX, mexB (PA): combined with LVFX at 1/4 MIC; for EC99, combinational effect with TC, mexB (PA): combined with TC at 1/4 MIC
Procedure, shortened: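 P. aeruginosa mexB (PA) strain, lacking MexCD-OprJ, MexEF-OprN and MexXY and overexpressing MexAB-OprM, grown 16–20 h in CAMHB (10^4–5 CFU/well) with LVFX, TC or AZT at ¼ MIC plus test compound at 0–800 μM. Growth read as OD595; EC99 is the lowest compound concentration giving ≥99% growth inhibition.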

S-3769 strain = assay: Combinational effect with antibacterial agent against Pseudomonas aeruginosa (Test Examples 2 and 4): S-3769 strain with AMK or GM at 1/4 MIC, EC99; format: cell-based; conditions: S-3769 strain, Test Example 4; for EC99, combinational effect with AMK, S-3769 strain: combined with AMK at 1/4 MIC; for EC99, combinational effect with GM, S-3769 strain: combined with GM at 1/4 MIC
Procedure, shortened: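 P. aeruginosa S-3769 (clinical isolate, MexY overexpressed) grown 16–20 h in CAMHB, 10^4 to 5 CFU/well, with AMK or GM at ¼ MIC plus test compound 0–800 μM. Growth read as OD595; EC99 is the lowest compound concentration giving ≥99% growth inhibition.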

| SMILES | EC99, combinational effect with AZT, mexB (PA) (mexB (PA) strain) | EC99, combinational effect with LVFX, mexB (PA) (mexB (PA) strain) | EC99, combinational effect with TC, mexB (PA) (mexB (PA) strain) | EC99, combinational effect with AMK, S-3769 strain (S-3769 strain) | EC99, combinational effect with GM, S-3769 strain (S-3769 strain) |
| --- | --- | --- | --- | --- | --- |
| N[C@@H](C(=O)N1CCN(Cc2c(F)cccc2N2CCCC2)CC1)C1CCN(CCc2cc(Cl)ccc2-c2ccccc2)CC1 [Example 517, Hydrobromide of (R)-2-amino-2-(1-(2-(4-chloro-[1,1-biphenyl]-2-yl)ethyl)piperidin-4-yl)-1-(4-(2-fluoro-6-(pyrrolidin-1-yl)benzyl)piperazin-1-yl)ethan-1-one] | B (25 μM<EC99≤100 μM) | C (100 μM<EC99) | B (25 μM<EC99≤100 μM) | B (25 μM<EC99≤100 μM) | B (25 μM<EC99≤100 μM) |
| Nc1nc2c(CN3CCN(C(=O)[C@H](N)C4CCN(CCc5cc(Cl)ccc5-c5ccccc5)CC4)CC3)cccc2s1 [Example 519, Hydrobromide of (R)-2-amino-1-(4-((2-aminobenzo[d]thiazol-4-yl)methyl)piperazin-1-yl)-2-(1-(2-(4-chloro-[1,1-biphenyl]-2-yl)ethyl)piperidin-4-yl)ethan-1-one] | C (100 μM<EC99) | C (100 μM<EC99) | B (25 μM<EC99≤100 μM) | B (25 μM<EC99≤100 μM) | B (25 μM<EC99≤100 μM) |
| N[C@@H](C(=O)N1CCN(Cc2ccccc2B(O)O)CC1)C1CCN(CCc2cc(Cl)ccc2-c2ccccc2)CC1 [Example 521, Hydrobromide of (R)-(2-((4-(2-amino-2-(1-(2-(4-chloro-[1,1-biphenyl]-2-yl)ethyl)piperidin-4-yl)acetyl)piperazin-1-yl)methyl)phenyl)boronic acid] | C (100 μM<EC99) | C (100 μM<EC99) | C (100 μM<EC99) | B (25 μM<EC99≤100 μM) | B (25 μM<EC99≤100 μM) |
| COc1cccc(SC)c1CN1CCN(C(=O)[C@H](N)C2CCN(CCc3cc(Cl)ccc3-c3ccccc3)CC2)CC1 [Example 522, Hydrobromide of (R)-2-amino-2-(1-(2-(4-chloro-[1,1-biphenyl]-2-yl)ethyl)piperidin-4-yl)-1-(4-(2-methoxy-6-(methylthio)benzyl)piperazin-1-yl)ethan-1-one] | B (25 μM<EC99≤100 μM) | A (12.5 μM<EC99≤25 μM) | B (25 μM<EC99≤100 μM) | A (12.5 μM<EC99≤25 μM) | B (25 μM<EC99≤100 μM) |
| N[C@@H](C(=O)N1CCN(CC2CCCCC2)CC1)C1CCN(CCc2cc(Cl)ccc2-c2ccccc2)CC1 [Example 526, Hydrobromide of (R)-2-amino-2-(1-(2-(4-chloro-[1,1-biphenyl]-2-yl)ethyl)piperidin-4-yl)-1-(4-(cyclohexylmethyl)piperazin-1-yl)ethan-1-one] | B (25 μM<EC99≤100 μM) | B (25 μM<EC99≤100 μM) | A (12.5 μM<EC99≤25 μM) | A (12.5 μM<EC99≤25 μM) | A (12.5 μM<EC99≤25 μM) |
| COc1cccc(NC(=O)C(C)(C)C)c1CN1CCN(C(=O)[C@H](N)C2CCN(CCc3cc(Cl)ccc3-c3ccccc3)CC2)CC1 [Example 527, Hydrobromide of (R)-N-(2-((4-(2-amino-2-(1-(2-(4-chloro-[1,1-biphenyl]-2-yl)ethyl)piperidin-4-yl)acetyl)piperazin-1-yl)methyl)-3-methoxyphenyl)pivalamide] | C (100 μM<EC99) | C (100 μM<EC99) | B (25 μM<EC99≤100 μM) | S (EC99≤12.5 μM) | S (EC99≤12.5 μM) |
| N[C@@H](C(=O)N1CCN(Cc2c(F)cccc2-c2c[nH]cn2)CC1)C1CCN(CCc2cc(Cl)ccc2-c2ccccc2)CC1 [Example 528, Hydrobromide of (R)-2-amino-2-(1-(2-(4-chloro-[1,1-biphenyl]-2-yl)ethyl)piperidin-4-yl)-1-(4-(2-fluoro-6-(1H-imidazol-4-yl)benzyl)piperazin-1-yl)ethan-1-one] | B (25 μM<EC99≤100 μM) | A (12.5 μM<EC99≤25 μM) | A (12.5 μM<EC99≤25 μM) | A (12.5 μM<EC99≤25 μM) | S (EC99≤12.5 μM) |
| N[C@@H](C(=O)N1CCN(Cc2ccccc2SC(F)(F)F)CC1)C1CCN(CCc2cc(Cl)ccc2-c2ccccc2)CC1 [Example 529, Hydrobromide of (R)-2-amino-2-(1-(2-(4-chloro-[1,1-biphenyl]-2-yl)ethyl)piperidin-4-yl)-1-(4-(2-((trifluoromethyl)thio)benzyl)piperazin-1-yl)ethan-1-one] | C (100 μM<EC99) | A (12.5 μM<EC99≤25 μM) | A (12.5 μM<EC99≤25 μM) | A (12.5 μM<EC99≤25 μM) | B (25 μM<EC99≤100 μM) |
| CSc1ccc(F)cc1CN1CCN(C(=O)[C@H](N)C2CCN(CCc3cc(Cl)ccc3-c3ccccc3)CC2)CC1 [Example 530, Hydrobromide of (R)-2-amino-2-(1-(2-(4-chloro-[1,1-biphenyl]-2-yl)ethyl)piperidin-4-yl)-1-(4-(5-fluoro-2-(methylthio)benzyl)piperazin-1-yl)ethan-1-one] | B (25 μM<EC99≤100 μM) | S (EC99≤12.5 μM) | S (EC99≤12.5 μM) | S (EC99≤12.5 μM) | A (12.5 μM<EC99≤25 μM) |
| CSc1sccc1CN1CCN(C(=O)[C@H](N)C2CCN(CCc3cc(Cl)ccc3-c3ccccc3)CC2)CC1 [Example 531, Hydrobromide of (R)-2-amino-2-(1-(2-(4-chloro-[1,1-biphenyl]-2-yl)ethyl)piperidin-4-yl)-1-(4-((2-(methylthio)thiophen-2-yl)methyl)piperazin-1-yl)ethan-1-one] | B (25 μM<EC99≤100 μM) | S (EC99≤12.5 μM) | A (12.5 μM<EC99≤25 μM) | A (12.5 μM<EC99≤25 μM) | A (12.5 μM<EC99≤25 μM) |
| CSc1cccc(Cl)c1CN1CCN(C(=O)[C@H](N)C2CCN(CCc3cc(Cl)ccc3-c3ccccc3)CC2)CC1 [Example 532, Hydrobromide of (R)-2-amino-1-(4-(2-chloro-6-(methylthio)benzyl)piperazin-1-yl)-2-(1-(2-(4-chloro-[1,1-biphenyl]-2-yl)ethyl)piperidin-4-yl)ethan-1-one] | B (25 μM<EC99≤100 μM) | B (25 μM<EC99≤100 μM) | B (25 μM<EC99≤100 μM) | B (25 μM<EC99≤100 μM) | B (25 μM<EC99≤100 μM) |
| N[C@@H](C(=O)N1CCN(Cc2cccc3cccnc23)CC1)C1CCN(CCc2cc(Cl)ccc2-c2ccccc2)CC1 [Example 533, Hydrobromide of (R)-2-amino-2-(1-(2-(4-chloro-[1,1-biphenyl]-2-yl)ethyl)piperidin-4-yl)-1-(4-(quinolin-8-ylmethyl)piperazin-1-yl)ethan-1-one] | B (25 μM<EC99≤100 μM) | A (12.5 μM<EC99≤25 μM) | A (12.5 μM<EC99≤25 μM) | A (12.5 μM<EC99≤25 μM) | A (12.5 μM<EC99≤25 μM) |
| CCSc1ncccc1CN1CCN(C(=O)[C@H](N)C2CCN(CCc3cc(Cl)ccc3-c3ccccc3)CC2)CC1 [Example 535, Hydrobromide of (R)-2-amino-2-(1-(2-(4-chloro-[1,1-biphenyl]-2-yl)ethyl)piperidin-4-yl)-1-(4-((2-(ethylthio)pyridin-3-yl)methyl)piperazin-1-yl)ethan-1-one] | B (25 μM<EC99≤100 μM) | A (12.5 μM<EC99≤25 μM) | B (25 μM<EC99≤100 μM) | B (25 μM<EC99≤100 μM) | B (25 μM<EC99≤100 μM) |
| CSc1cccnc1CN1CCN(C(=O)[C@H](N)C2CCN(CCc3cc(Cl)ccc3-c3ccccc3)CC2)CC1 [Example 536, Hydrobromide of (R)-2-amino-2-(1-(2-(4-chloro-[1,1-biphenyl]-2-yl)ethyl)piperidin-4-yl)-1-(4-((3-(methylthio)pyridin-2-yl)methyl)piperazin-1-yl)ethan-1-one] | A (12.5 μM<EC99≤25 μM) | A (12.5 μM<EC99≤25 μM) | B (25 μM<EC99≤100 μM) | B (25 μM<EC99≤100 μM) | B (25 μM<EC99≤100 μM) |
